Paper PMC4098866 (Bioscience Reports, 2012)
Several values for one entry are separate records, joined by “and”; a condition that tells them apart may be missing. Identical values can stand only once. Like-named read-outs stand apart in the source and are kept apart here.

Tests used:
RPSA-(2–295) [1] = target: T1, RPSA-(2–295) (Mus musculus, UniProt P14206); experiment: Indirect ELISA, capture of heparin by immobilized RPSA derivative; assay type: binding, murine; conditions: 25°C
RPSA-(2–220) [2] = target: T2, RPSA-(2–220) (Mus musculus, UniProt P14206); experiment: as above; assay type: binding, murine; conditions: 25°C, half-saturation, listed as Heparin
RPSA-(2–209) [3] = target: T3, RPSA-(2–209) (Mus musculus, UniProt P14206); experiment: as above; assay type: binding, murine; conditions: 25°C, half-saturation
RPSA-(210–295) [4] = target: T4, RPSA-(210–295) (Mus musculus, UniProt P14206); experiment: as above; assay type: binding, murine; conditions: 25°C
RPSA-(225–295) [5] = target: T5, RPSA-(225–295) (Mus musculus, UniProt P14206); experiment: as above; assay type: binding, murine; conditions: 25°C
[6] = target: capture of laminin by immobilized RPSA-(2–220) (Mus musculus, UniProt P14206); assay type: binding, murine; conditions: EC50 smaller than K1/2
[7] = target: interaction between RPSA-(225–295) and laminin (Mus musculus, UniProt P02468+P02469+P19137); experiment: Competition ELISA, inhibition constant Ki of heparin; assay type: binding, murine; conditions: read-out: constant of inhibition (Ki); 25°C, buffer C, laminin 5 μg/ml, immobilized RPSA-(225–295)
RPSA-(2–295) [8] = target: T1, RPSA-(2–295); experiment: Competition ELISA, KD between laminin and RPSA derivative; assay type: binding, murine
RPSA-(2–220) [9] = target: T2, RPSA-(2–220); experiment: as above; assay type: binding, murine; conditions: read-out: KD(Laminin), 25°C, buffer C, equilibrium in solution
RPSA-(2–209) [10] = target: T3, RPSA-(2–209); experiment: as above; assay type: binding, murine; conditions: read-out: KD(Laminin), 25°C, buffer C, equilibrium in solution
RPSA-(210–295) [11] = target: T4, RPSA-(210–295); experiment: as above; assay type: binding, murine; conditions: read-out: KD(Laminin), 25°C, buffer C, equilibrium in solution
RPSA-(225–295) [12] = target: T5, RPSA-(225–295); experiment: as above; assay type: binding, murine; conditions: read-out: KD(Laminin), 25°C, buffer C, equilibrium in solution
N-domain of RPSA = N-domain of RPSA (Mus musculus, UniProt P14206); experiment: Summary of ligand binding functions of RPSA domains; design: species or system murine; conditions: read-out: KD (dissociation constants), N-domain; rounded value of the Abstract
C-domain of RPSA = C-domain of RPSA (Mus musculus, UniProt P14206); experiment: as above; design: species or system murine; conditions: read-out: KD (dissociation constants), C-domain; rounded value of the Abstract
67LR = conditions: cell membrane, denatured, SPRadio-L, cited from earlier work
RPSA 1–220 = conditions: 1–220, E. coli, native, Ind. ELISA, 37 °C; cited from earlier work
RPSA 1–295 = conditions: 1–295, E. coli, native, Ind. ELISA, 37 °C; cited from earlier work
[13] = target: RPSA 161–180 (synthetic peptide G); conditions: SPRadio-L, 4 °C; cited from earlier work
RPSA-(2–295) [14] = target: T1, RPSA-(2–295); experiment: Fluorimetric titration of RPSA derivative with EGCG; assay type: binding, murine
RPSA-(2–220) [15] = target: T2, RPSA-(2–220); experiment: as above; assay type: binding, murine; conditions: read-out: KD(EGCG); 25°C, PBS, equilibrium in solution, spectrofluorimetry
RPSA-(2–209) [16] = target: T3, RPSA-(2–209); experiment: as above; assay type: binding, murine
RPSA-(210–295) [17] = target: T4, RPSA-(210–295); experiment: as above; assay type: binding, murine; conditions: 25°C
RPSA-(225–295) [18] = target: T5, RPSA-(225–295); experiment: as above; assay type: binding, murine; conditions: 25°C
RPSA-(2–209) W176A = RPSA-(2–209) W176A (Mus musculus, UniProt P14206, W176A); experiment: Fluorimetric titration of mutant RPSA-; assay type: binding, murine
RPSA-(2–209) W195A = RPSA-(2–209) W195A (Mus musculus, UniProt P14206, W195A); experiment: Fluorimetric titration of mutant RPSA-; assay type: binding, murine
[19] = test system: 67LR form of RPSA, purified from human cancer cells; conditions: 25°C, surface plasmon resonance; cited from earlier work
[20] = read-out: KD(EGCG), 25°C, PBS, equilibrium in solution, spectrofluorimetry
[21] = uncorrected fluorescence, consistent with tryptophanamide control

heparin sodium salt
heparin binding (in words) (RPSA-(2–295) [1]): did not bind
K1/2(Heparin) (RPSA-(2–295) [1]; half-saturation): ≫4 μM
K1/2(Heparin) (RPSA-(2–220) [2]): 4.4 µM and 4.36 ± 0.28 µM
K1/2(Heparin) (RPSA-(2–209) [3]): 1.43 µM
K1/2(Heparin) (RPSA-(2–209) [3]; listed as Heparin): 1.43 ± 0.06 µM
heparin binding (in words) (RPSA-(210–295) [4]): did not bind
K1/2(Heparin) (RPSA-(210–295) [4]; half-saturation): ≫2 μM
heparin binding (in words) (RPSA-(225–295) [5]): did not bind
K1/2(Heparin) (RPSA-(225–295) [5]; half-saturation): ≫2 μM
EC50 relative to K1/2 of heparin for RPSA-(2–220) [6]: 130 fold
Ki [7]: 16.1 ± 0.7 nM

laminin: laminin from mouse EHS (Engelbreth-Holm-Swarm) sarcoma, component of the extracellular matrix
KD of laminin, full-length RPSA-(2–295) relative to N- or C-domain (RPSA-(2–295) [8]; higher for full-length): 2 fold
Kd (RPSA-(2–295) [8]; read-out: KD(Laminin), 25°C, buffer C, equilibrium in solution, competition ELISA): 666 ± 33 nM
Kd (RPSA-(2–220) [9]): 691 ± 98 nM
Kd (RPSA-(2–209) [10]): 273 ± 37 nM
Kd (RPSA-(210–295) [11]): 374 ± 54 nM
Kd (RPSA-(225–295) [12]): 344 ± 50 nM
Kd (N-domain of RPSA): 300 nM
Kd (C-domain of RPSA): 300 nM
Kd (67LR; 4 °C): 2 nM
Kd (67LR; 20 °C): 2 nM
Kd (RPSA 1–220): 1700 nM
Kd (RPSA 1–295): 700 nM
Kd [13]: 52 nM

O=C(O[C@@H]1Cc2c(O)cc(O)cc2O[C@@H]1c1cc(O)c(O)c(O)c1)c1cc(O)c(O)c(O)c1 [EGCG, (−)-epigallocatechin-3-gallate]
KD of EGCG, full-length RPSA-(2–295) relative to N-domain (RPSA-(2–295) [14]; higher for full-length): 4 fold
Kd (RPSA-(2–295) [14]; [20]): 399 ± 101 nM
Kd (RPSA-(2–220) [15]): 130 ± 37 nM
KD of EGCG with RPSA-(2–209) relative to literature KD with 67LR (RPSA-(2–209) [16]; higher than 39.9 nM of ref 46): 2.5 fold
Kd (RPSA-(2–209) [16]; [20]): 99 ± 7 nM
EGCG binding (in words) (RPSA-(210–295) [17]; spectrofluorimetry): did not bind
[EGCG]1/2 (concentration of half-absorption, Beer's law fitted to F) (RPSA-(210–295) [17]; [21]): 48 µM
EGCG binding (in words) (RPSA-(225–295) [18]; spectrofluorimetry): did not bind
[EGCG]1/2 (concentration of half-absorption, Beer's law fitted to F) (RPSA-(225–295) [18]; [21]): 43 µM
decrease of free energy of interaction (ΔΔG) with EGCG (RPSA-(2–209) W176A; W176A vs parental RPSA-(2–209)): 0.4 ± 0.1 kcal/mol
Kd (RPSA-(2–209) W176A; read-out: KD (EGCG), 25°C, W176A mutant of RPSA-(2–209)): 186 ± 42 nM
decrease of free energy of interaction (ΔΔG) with EGCG (RPSA-(2–209) W195A; W195A vs parental RPSA-(2–209)): 0.4 ± 0.1 kcal/mol
Kd (RPSA-(2–209) W195A; read-out: KD (EGCG), 25°C, W195A mutant of RPSA-(2–209)): 196 ± 54 nM
Kd (N-domain of RPSA): 100 nM
KD (EGCG and 67LR), ratio kd/ka [19]: 39.9 nM
